Results published in patent US20100267638A1, “EXOSITE-DIRECTED THROMBIN INHIBITORS” (CLEVELAND STATE UNIVERSITY, priority 2003, published 2010).
“Also recorded” adds a separate entry of the source. No end group written: not given here.

Columns and labels:
prothrombinase = molecular target: T1, prothrombinase (Homo sapiens, UniProt P00734); experiment: Assay measuring thrombin formation (prothrombinase inhibition by peptides, DAPA fluorescence); type: biochemical
T1 construct: purchased Haematologic Technologies Inc. (Essex Junction, Vt.)

[1] = molecular target: T2, active-site-immobilized thrombin (Homo sapiens, UniProt P00734); experiment: Direct binding of the peptides to thrombin-agarose (chromatography); details: 400 μg peptide, 2.5 ml column, elution 2M NaCl
T2 construct: Factor Xa cleaves prothrombin to form thrombin; purchased Haematologic Technologies Inc. (Essex Junction, Vt.)
Protocol: Direct binding of the peptides to thrombin. Thrombin was immobilized onto agarose through the active site as described. Peptide solutions of HC1-HC5 (SEQ ID NO. 2-6, respectively), D13R (SEQ ID NO. 21), DYDYQ (SEQ ID NO. 11), and P15H (SEQ ID NO. 22) were dissolved in water to a given concentration and then diluted in 20 mM Hepes, 0.1 M NaCl, pH 7.4 in a manner that 400 μg was contained in each starting solution. In control experiments it was determined that the maximum amount of peptide that could be retained by the thrombin-agarose column was 400 μg. Since some of the peptides contain aromatic amino acid residues, their concentration was also measured by optical density.
Mass spectrometry instruments and conditions. The identity of all peptides found in the flow-through or the elution of the thrombin-agarose column was verified by mass spectrometry. Since the peptides were in a buffer solution, we used Liquid Chromatography/Mass Spectrometry (LC/MS) for their identification. In this procedure peptides are first separated from the salt content of the buffer using an HPLC system (HP 1100, HPLC gradient system, Agilent Technologies, Palo Alto Calif.) with a C18 column (1 mm×15 cm, GraceVydac, Hesperia Calif.) with buffers A (0.3% acetic acid in water) and B (0.3% acetic acid in acetonitrile). The elution of the column was monitored with a Micromass Quatro II ESI-Triple Quadrupole Mass Spectrometer (Waters, Milford Mass.). The data were collected using a Compaq Professional Workstation AP200 (Hewlett-Packard, Palo Alto Calif.) and analyzed by the software MassLynx v3.3 (Waters, Milford Mass.).
Direct interaction of hirudin-like peptides from factor tor Va heavy chain With thrombin-agarose. To ascertain that the peptides of interest are inhibitory of prothrombinase activity and contain a binding site for thrombin, the interaction of all peptides with active-site-immobilized thrombin was studied in chromatographic experiments and is shown in FIG. 5. In FIG. 5, small scale chromatography of hirudin-like peptides was performed on a 2.5 ml thrombin-agarose. Each run represents 400 μg of peptide. This amount of peptide was determined to saturate the specific sites of thrombin of the column used (2.5 ml). Elution was performed with 2M NaCl and was started at the point indicated by the arrow (fraction #30). The presence of the peptides in the corresponding fractions was monitored by absorbance at 280 nm (shown on the y axis) and by LC/MS (inset). […] Specifically, these peptides were treated similarly to all other peptides and similar fractions were collected. Aliquots from fractions #7 and #35 from each separate experiment were submitted to LC/MS analysis as described herein (depicted by the hatched arrows at the bottom of the chromatogram). The results from tube #7 from three chromatograms are depicted. The data are presented as % intensity of the signal as a function of the mass of the peptide divided by the charge (m/z). FIG. 5A, HC1 (Mr calculated 1268); FIG. 5B, HC2 (Mr calculated 1132); FIG. 5C, HC5 (Mr calculated 1053). The spectrum of HC1 has two major peaks: at 635.5 and at 424, and one minor peak at 1270 (1268+1). The peak at 635.5 represents the peptide (mass/charge) with two positive charges ([…]) i.e. [(1268+2=1270)]/2=635 whereas, the peak at 424 represents HC1 with three positive charges ([…]) i.e. [(1268+3=1271)]/3=424. […] HC5 spectrum has two major peaks: one at 528 and one at 352. The peak at 528 represents the peptide with two positive charges ([…]) i.e. [(1053+2=1055)]/2=527.5 while, the other peak represents HC5 with three positive charges ([M+31-]^2+) i.e. [(1053+3=1056)]/3=352. The minor peak at 1054 represents the peptide with one charge. It is noteworthy, that in gas phase the number of protons attached to each peptide depends on the number (quantity) of basic residues contained in each peptide. […] Thus, HC1 and HC5 are more likely to bind two or three protons than HC2. […]

## DYDYQ [DYDYQ, Asp-Tyr-Asp-Tyr-Gln]
prothrombinase; FIG. 3A
  concentration at which complete inhibition of prothrombinase occurred: 40 µM
prothrombinase; FIG. 10A, up to 8000 nM
  inhibition of prothrombinase activity with increasing peptide: decrease in the activity of prothrombinase
prothrombinase; calculated from IC50 of 1.6 μM as in FIG. 2C legend, read-out: Ki for inhibition of prothrombinase
  Ki: 0.85 µM
prothrombinase; factor Va 4 nM, factor Xa 10 nM, prothrombin 350 nM, PCPS 10 μM, peptide preincubated with factor Va
  IC50: 1.6 µM
[1]
  interaction with immobilized thrombin (thrombin-agarose): eluted from the column with high-salt buffer; also recorded: interact with immobilized thrombin
